According to ChEMBL document CHEMBL3877268, “Development of resveratrol-curcumin hybrids as potential therapeutic agents for inflammatory lung diseases” (Eur J Med Chem, 2017):
pIC50: −log10 of the molar value. Blank lines part the entries; values can stand above or below the compound they belong to. Calls of active or inactive are those of the source. No cut-off for these calls is given here.

What was measured:
[1] = Cytotoxicity against human HL-7702 cells assessed as viable cells at 10 uM measured after 24 hrs by MTT assay; assay type: toxicity, cell-based; conditions: l02, 24 h
[2] = system: RAW264.7; assay: Anti-inflammatory activity in mouse RAW264.7 cells assessed as inhibition of LPS-induced IL-6 expression at […] pretreated for 30 mins followed by LPS challenge measured after 24 hrs by ELISA method; assay type: functional, cell-based
[3] = Chemical stability of the compound in phosphate buffer at pH 7.4 at 20 uM measured every 5 mins for 25 mins by UV-visible absorption spectra analysis; assay type: physicochemical; conditions: pH 7.4, 25 min
[4] = system: RAW264.7; assay: Anti-inflammatory activity in mouse RAW264.7 cells assessed as inhibition of LPS-induced IL-6 expression pretreated for 30 mins followed by LPS challenge measured after 24 hrs by ELISA method; assay type: functional, cell-based
[5] = system: RAW264.7; assay: Anti-inflammatory activity in mouse RAW264.7 cells assessed as inhibition of LPS-induced TNF-alpha expression at […] pretreated for 30 mins followed by LPS challenge measured after 24 hrs by ELISA method; assay type: functional, cell-based
[6] = system: Mus musculus; assay: Anti-inflammatory activity in LPS-induced C57BL/6 mouse acute lung injury model assessed as reduction in IL-6 level in serum at 5 mg/kg, ig pretreated for 7 days followed LPS challenge measured after 6 hrs by ELISA method; assay type: functional, organism-based
[7] = system: Peritoneal macrophage; assay: Anti-inflammatory activity in mouse peritoneal macrophage assessed as inhibition of LPS-induced TNF-alpha mRNA expression at 10 uM pretreated for 30 mins followed by LPS challenge measured after 6 hrs by q-PCR analysis; assay type: functional
[8] = system: Peritoneal macrophage; assay: Anti-inflammatory activity in mouse peritoneal macrophage assessed as inhibition of LPS-induced IL-12 mRNA expression at 10 uM pretreated for 30 mins followed by LPS challenge measured after 6 hrs by q-PCR analysis; assay type: functional
[9] = system: Mus musculus; assay: Anti-inflammatory activity in LPS-induced C57BL/6 mouse acute lung injury model assessed as reduction in CD68-positive macrophage level in lung tissue at 5 mg/kg, ig pretreated for 7 days followed LPS challenge measured after 6 hrs by […] light microscopy; assay type: functional, organism-based
[10] = system: Mus musculus; assay: Anti-inflammatory activity in LPS-induced C57BL/6 mouse acute lung injury model assessed as reduction in lung wet/dry ratio at 5 mg/kg, ig pretreated for 7 days followed LPS challenge measured after 6 hrs; assay type: functional, organism-based
[11] = system: Mus musculus; assay: Anti-inflammatory activity in LPS-induced C57BL/6 mouse acute lung injury model assessed as reduction in IL-6 level in bronchoalveolar lavage fluid at 5 mg/kg, ig pretreated for 7 days followed LPS challenge measured after 6 hrs by ELISA method; assay type: functional, organism-based
[12] = system: Mus musculus; assay: Anti-inflammatory activity in LPS-induced C57BL/6 mouse acute lung injury model assessed as reduction in TNF-alpha level in bronchoalveolar lavage fluid at 5 mg/kg, ig pretreated for 7 days followed LPS challenge measured after 6 hrs by ELISA method; assay type: functional, organism-based
[13] = system: Mus musculus; assay: Anti-inflammatory activity in LPS-induced C57BL/6 mouse acute lung injury model assessed as reduction in total protein concentration at 5 mg/kg, ig pretreated for 7 days followed LPS challenge measured after 6 hrs by BCA protein assay; assay type: functional, organism-based
[14] = system: Mus musculus; assay: Anti-inflammatory activity in LPS-induced C57BL/6 mouse acute lung injury model assessed as reduction in number of neutrophils in bronchoalveolar lavage fluid at 5 mg/kg, ig pretreated for 7 days followed LPS challenge measured after 6 hrs by Wright-Giemsa staining based assay; assay type: functional, organism-based
[15] = system: Mus musculus; assay: Anti-inflammatory activity in LPS-induced C57BL/6 mouse acute lung injury model assessed as reduction in total number of cells in bronchoalveolar lavage fluid at 5 mg/kg, ig pretreated for 7 days followed LPS challenge measured after 6 hrs by hemocytometer; assay type: functional, organism-based
[16] = system: Mus musculus; assay: Anti-inflammatory activity in LPS-induced C57BL/6 mouse acute lung injury model assessed as reduction in TNF-alpha level in serum at 5 mg/kg, ig pretreated for 7 days followed LPS challenge measured after 6 hrs by ELISA method; assay type: functional, organism-based
[17] = system: Peritoneal macrophage; assay: Anti-inflammatory activity in mouse peritoneal macrophage assessed as inhibition of LPS-induced IL-6 expression at 10 uM pretreated for 30 mins followed by LPS challenge measured after 6 hrs by q-PCR analysis; assay type: functional
[18] = system: Peritoneal macrophage; assay: Anti-inflammatory activity in mouse peritoneal macrophage assessed as inhibition of LPS-induced IL-33 mRNA expression at 10 uM pretreated for 30 mins followed by LPS challenge measured after 6 hrs by q-PCR analysis; assay type: functional
[19] = system: Mus musculus; assay: Anti-inflammatory activity in LPS-induced C57BL/6 mouse acute lung injury model assessed as reduction in airspace inflammation in lung tissue at 5 mg/kg, ig pretreated for 7 days followed LPS challenge measured after 6 hrs by hematoxylin and eosin staining based light microscopy; assay type: functional, organism-based

Structure (SMILES): COc1ccc(/C=C/c2cc(OC)cc(OC)c2/C=C/C(=O)/C=C/c2ccccc2Br)cc1
- Activity [1]: Non-Toxic

Structure (SMILES): COc1ccc(/C=C/c2cc(OC)cc(OC)c2/C=C/C(=O)/C=C/c2ccc(OC)c(Br)c2)cc1
- inhibition [2]: Active
- Activity [1]: Non-Toxic

Structure (SMILES): COc1ccc(/C=C/c2cc(OC)cc(OC)c2/C=C/C(=O)/C=C/c2ccc(C(F)(F)F)cc2)cc1
- Activity [1]: Non-Toxic

Structure (SMILES): CCOc1ccc(/C=C/C(=O)/C=C/c2c(/C=C/c3ccc(OC)cc3)cc(OC)cc2OC)cc1
- Activity [1]: Non-Toxic

Structure (SMILES): COc1ccc(/C=C/c2cc(OC)cc(OC)c2/C=C/C(=O)/C=C/c2cccc(C(F)(F)F)c2)cc1
- inhibition [2]: Active
- Activity [1]: Non-Toxic

- Stability [3]: Unstable
- pIC50 [4]: 5.41
Structure (SMILES): COc1ccc(/C=C/c2cc(OC)cc(OC)c2/C=C/C(=O)/C=C/c2ccccc2)cc1
- inhibition [2]: Active
- inhibition [4]: Dose-dependent effect
- Activity [1]: Non-Toxic
- inhibition [5]: Active

Structure (SMILES): COc1ccc(/C=C/c2cc(OC)cc(OC)c2/C=C/C(=O)/C=C/c2ccccc2OC)cc1
- Activity [1]: Non-Toxic

Structure (SMILES): COc1ccc(/C=C/c2cc(OC)cc(OC)c2/C=C/C(=O)/C=C/c2ccc(N3CCN(C)CC3)cc2)cc1
- Activity [1]: Non-Toxic

Structure (SMILES): COc1ccc(/C=C/c2cc(OC)cc(OC)c2/C=C/C(=O)/C=C/c2ccc(OC(C)(C)C)cc2)cc1
- Activity [1]: Non-Toxic

Structure (SMILES): C=CCOc1ccc(/C=C/C(=O)/C=C/c2c(/C=C/c3ccc(OC)cc3)cc(OC)cc2OC)cc1
- Activity [1]: Non-Toxic

Structure (SMILES): COc1ccc(/C=C/c2cc(OC)cc(OC)c2/C=C/C(=O)/C=C/c2ccc(O)c(Br)c2)cc1
- Activity [1]: Non-Toxic

Structure (SMILES): COc1ccc(/C=C/c2cc(OC)cc(OC)c2/C=C/C(=O)/C=C/c2ccc(C)cc2C)cc1
- Activity [1]: Non-Toxic

Structure (SMILES): COc1ccc(/C=C/c2cc(OC)cc(OC)c2/C=C/C(=O)/C=C/c2ccccc2Cl)cc1
- Activity [1]: Non-Toxic

Structure (SMILES): COc1ccc(/C=C/c2cc(OC)cc(OC)c2/C=C/C(=O)/C=C/c2c(OC)cc(OC)cc2OC)cc1
- inhibition [2]: Active
- Activity [1]: Non-Toxic

Structure (SMILES): CCN(CC)c1ccc(/C=C/C(=O)/C=C/c2c(/C=C/c3ccc(OC)cc3)cc(OC)cc2OC)cc1
- inhibition [2]: Active
- Activity [1]: Non-Toxic

Structure (SMILES): COc1ccc(/C=C/c2cc(OC)cc(OC)c2/C=C/C(=O)/C=C/c2cc(C(F)(F)F)ccc2C(F)(F)F)cc1
- Activity [1]: Non-Toxic

Structure (SMILES): COc1ccc(/C=C/c2cc(OC)cc(OC)c2/C=C/C(=O)/C=C/c2cccc3ccccc23)cc1
- Activity [1]: Non-Toxic

Structure (SMILES): COc1ccc(/C=C/c2cc(OC)cc(OC)c2/C=C/C(=O)/C=C/c2ccc(C(C)(C)C)cc2)cc1
- Activity [1]: Non-Toxic

- Stability [3]: Stable
- pIC50 [4]: 5.61
Structure (SMILES): COc1ccc(/C=C/c2cc(OC)cc(OC)c2/C=C/C(=O)/C=C/c2cccc(OC)c2OC)cc1
- inhibition [2]: Active
- Activity [6]: Active
- inhibition [4]: Dose-dependent effect
- inhibition [7]: Active
- inhibition [8]: Active
- Activity [9]: Active
- Activity [10]: Active
- Activity [11]: Active
- Activity [12]: Active
- Activity [13]: Active
- Activity [1]: Non-Toxic
- Activity [14]: Active
- Activity [15]: Active
- Activity [16]: Active
- inhibition [17]: Active
- inhibition [18]: Active
- Activity [19]: Active
- inhibition [5]: Active

Structure (SMILES): COc1ccc(/C=C/c2cc(OC)cc(OC)c2/C=C/C(=O)/C=C/c2ccc(O)c(OC)c2)cc1
- Activity [1]: Non-Toxic

Structure (SMILES): COc1ccc(/C=C/c2cc(OC)cc(OC)c2/C=C/C(=O)/C=C/c2ccccc2C(F)(F)F)cc1
- inhibition [2]: Active
- Activity [1]: Non-Toxic
- inhibition [5]: Active

- Stability [3]: Stable
- pIC50 [4]: 5.67
Structure (SMILES): COc1ccc(/C=C/c2cc(OC)cc(OC)c2/C=C/C(=O)/C=C/c2ccc(OCCCN(C)C)cc2)cc1
- inhibition [2]: Active
- inhibition [4]: Dose-dependent effect
- Activity [1]: Non-Toxic
- inhibition [5]: Active

Structure (SMILES): COc1ccc(/C=C/c2cc(OC)cc(OC)c2/C=C/C(=O)/C=C/c2ccc3c(c2OC)OCO3)cc1
- Activity [1]: Non-Toxic

- Stability [3]: Stable
- pIC50 [4]: 5.52
Structure (SMILES): COc1ccc(/C=C/c2cc(OC)cc(OC)c2/C=C/C(=O)/C=C/c2ccc(OC)cc2OC)cc1
- inhibition [2]: Active
- inhibition [4]: Dose-dependent effect
- Activity [1]: Non-Toxic
- inhibition [5]: Active

- Stability [3]: Unstable
- pIC50 [4]: 5.36
Structure (SMILES): COc1ccc(/C=C/c2cc(OC)cc(OC)c2/C=C/C(=O)/C=C/c2ccc(C)s2)cc1
- inhibition [2]: Active
- inhibition [4]: Dose-dependent effect
- Activity [1]: Non-Toxic
- inhibition [5]: Active

- Stability [3]: Unstable
Structure (SMILES): Oc1ccc(/C=C/c2cc(O)cc(O)c2)cc1 [RESVERATROL]
